Drawing on patent US20240025913A1, “TERTIARY CARBOXAMIDE COMPOUNDS” (Vivace Therapeutics, Inc., priority 2020, published 2024), this text covers IC50 for 13 compounds.

Usually IC50 stands for the point on the concentration scale where inhibition reaches its midpoint. The low end stands for higher potency, the high end for lower potency.

For this assay, the system named is 8×TBD luciferase reporter in HEK293T cells. The assay can be described thus: YAP Reporter Assay (firefly luciferase). Format: cell-based. The note with it: Homo sapiens, HEK-293T; HEK293T cells stably transfected with 8×TBD luciferase reporter and pRLTK; 24-hr incubation; starting from 3 μM, 1:3 dilution, 10 points. The procedure: HEK293T cells stably transfected with 8×TBD luciferase reporter and pRLTK in 384-well plates were treated with the test compounds, starting from 3 μM (final concentration in assay plate), 1:3 dilution, and 10 points in quadruplicates. Post 24-hr incubation with compounds at 37° C. and 5% CO2, cells were lysed and 8×TBD-driven firefly luciferase and control TK-driven renilla luciferase activities were measured using Promega Dual-Luciferase Reporter Assay System.
Reagents: The reagents used for this study are: DMEM: Invitrogen #11960077, Dual-Glo Luciferase Assay System: Promega-E2980, Puromycin Dihydrochloride: Invitrogen-A1113803, 384-well plate: PerkinElmer-6007480, L-GLUTAMINE: Invitrogen-25030164, Hygromycin B: Invitrogen-10687010, and Penicillin-Streptomycin: Merk-TMS-AB2-C
Media: The media used for this assay were: Culture Medium: DMEM+1 ug/mL puromycin+200 ug/mL hygromycin (with 10% FBS+1 mM L-glutamine); and Assay Medium: DMEM (with 10% FBS+1 mM L-glutamine+1×P/S).
Cell Plating: The appropriate media was warmed at 37° C. by water bath: Culture Medium, Assay Medium, 1*D-PBS, 0.05% trypsin-EDTA. The cells were trypsinized after removing all media, then washed with 1*sterile D-PBS and then with 2 ml 0.05% trypsin-EDTA. The cells were then incubated at RT for one minute. Then 10 ml/75 cm2 flask Assay Medium was added to each flask. Using a 10 ml pipette, the cells were then gently resuspended in the media, until the clumps completely disappeared. The cells were then transferred into 50 ml centrifuge tubes and were centrifuged at 800 rpm for 5 mins. The medium was removed and the cells were resuspended with Assay Medium. An aliquot of cells was used to count the cell density (cells/ml). The cell suspension was then diluted with Assay Medium to a concentration of 6×10^4 cells/ml. 50 ul cells suspension was then plated to 384-well plate (PerkinElmer-6007480), 3×10^3 cells/well and the cells were incubated in an incubator at 37° C., 5% CO2.
Compound Treatment: In the afternoon (incubation of the plate with 3-4 hrs), the test compounds were added by Echo, starting from 3 uM (final concentration in the assay plate), 1:3 dilution, 10 points, quadruplicates. The plate was placed at 37° C., 5% CO2 incubator for 24 hrs.
Detection: The Dual-Glo Luciferase Reagent was prepared by transferring the contents of one bottle of Dual-Glo Luciferase Buffer to one bottle of Dual-Glo Luciferase Substrate to create the Dual-G Luciferase Reagent. Mixing was performed by inversion until the substrate was thoroughly dissolved. After mixing, the reagent was aliquoted into 15 ml tubes. In the afternoon (24 hrs post compound treatment), the DMEM+ medium in the 384 well plates were aspirated by Microplate Washer.
Measuring firefly luciferase activity: 20 ul Dual-Glo Luciferase Reagent was added to the 384-well plates. The plates were protected from light to prevent interference with the assay. The plates were shaken for […] followed centrifuging plates at 1000 rpm for 30 seconds. After waiting at least 10 minutes, the firefly luminescence was measured by Envision.
Measuring renilla luciferase activity: 20 ul Stop-Glo Reagent was added to the 384-well plates. The plates were shaken for […] and then centrifuged at 1000 rpm for 30 seconds. After waiting at least 10 minutes, the renilla luminescence was measured by Envision.
Compound IC50 and maximum inhibition on the firefly luciferase and renilla luciferase activities were reported separately.
With `O=C(c1ccc2c(Oc3ccc(C(F)(F)F)cc3)cccc2c1)N1CC(NCCF)C1` [Compound 31, (3-((2-Fluoroethyl)amino)azetidin-1-yl)(5-(4-(trifluoromethyl)phenoxy)naphthalen-2-yl)methanone], the IC50 lay within 100 to 1000 nM.

Compound `O=C(c1ccc2c(Oc3ccc(C(F)(F)F)cc3)cccc2c1)N1CC(NCC(F)F)C1` [Compound 32, (3-((2,2-Difluoroethyl)amino)azetidin-1-yl)(5-(4-(trifluoromethyl)phenoxy)naphthalen-2-yl)methanone] returned an IC50 of 100 to 1000 nM.

Take `CCNCC1CN(C(=O)c2ccc3c(Oc4ccc(C(F)(F)F)cc4)cccc3c2)C1` [Compound 33, (3-((Ethylamino)methyl)azetidin-1-yl)(5-(4-(trifluoromethyl)phenoxy)naphthalen-2-yl)methanone]: the IC50 lay within 100 to 1000 nM.

Consider `CC(C)NCC1CN(C(=O)c2ccc3c(Oc4ccc(C(F)(F)F)cc4)cccc3c2)C1` [Compound 34, (3-((Isopropylamino)methyl)azetidin-1-yl)(5-(4-(trifluoromethyl)phenoxy)naphthalen-2-yl)methanone], for which the IC50 fell in the range of 100 to 1000 nM.

As for `COCCNCC1CN(C(=O)c2ccc3c(Oc4ccc(C(F)(F)F)cc4)cccc3c2)C1` [Compound 35, (3-(((2-Methoxyethyl)amino)methyl)azetidin-1-yl)(5-(4-(trifluoromethyl)phenoxy)naphthalen-2-yl)methanone], the IC50 fell in the range of 100 to 1000 nM.

Compound `O=C(c1ccc2c(Oc3ccc(C(F)(F)F)cc3)cccc2c1)N1CC(CNCCF)C1` [Compound 36, (3-(((2-Fluoroethyl)amino)methyl)azetidin-1-yl)(5-(4-(trifluoromethyl)phenoxy)naphthalen-2-yl)methanone] came in with an IC50 of 100 to 1000 nM.

Compound `O=C(c1ccc2c(Oc3ccc(C(F)(F)F)cc3)cccc2c1)N1CC(CNCCO)C1` [Compound 37, (3-(((2-Hydroxyethyl)amino)methyl)azetidin-1-yl)(5-(4-(trifluoromethyl)phenoxy)naphthalen-2-yl)methanone] returned an IC50 not above 100 nM.

In turn, `O=C(c1ccc2c(Oc3ccc(C(F)(F)F)cc3)cccc2c1)N1CC(CNCC(F)F)C1` [Compound 38, (3-(((2,2-Fifluoroethyl)amino)methyl)azetidin-1-yl)(5-(4-(trifluoromethyl)phenoxy)naphthalen-2-yl)methanone] showed an IC50 not above 100 nM.

Take `O=C(c1ccc2c(Oc3ccc(C(F)(F)F)cc3)cccc2c1)N1CC(Nc2ccccn2)C1` [Compound 39, (3-(Pyridin-2-ylamino)azetidin-1-yl)(5-(4-(trifluoromethyl)phenoxy)naphthalen-2-yl)methanone]: the half-maximal inhibitory concentration (IC50) was 100 to 1000 nM.

Take `O=C(c1ccc2c(Oc3ccc(C(F)(F)F)cc3)cccc2c1)N1CC(CNc2ccccn2)C1` [Compound 40, (3-((Pyridin-2-ylamino)methyl)azetidin-1-yl)(5-(4-(trifluoromethyl)phenoxy)naphthalen-2-yl)methanone]: the IC50 is not above 100 nM.

The compound `O=C(c1ccc2c(Oc3ccc(C(F)(F)F)cc3)cccc2c1)N1CC2(C1)CN(c1ccccn1)C2` [Compound 41, (6-(Pyridin-2-yl)-2,6-diazaspiro[3.3]heptan-2-yl)(5-(4-(trifluoromethyl)phenoxy)naphthalen-2-yl)methanone] came in with an IC50 of 1000 to 3000 nM.

Take `CN(C)C(=O)c1ccc2c(Oc3ccc(C(F)(F)F)cc3)cccc2c1` [Compound 42, N,N-dimethyl-5-(4-(trifluoromethyl)phenoxy)naphthalene-2-carboxamide]: the IC50 was in the range of 100 to 1000 nM.

As for `CN(C#N)C(=O)c1ccc2c(Oc3ccc(C(F)(F)F)cc3)cccc2c1` [Compound 43, N-cyano-N-methyl-5-(4-(trifluoromethyl)phenoxy)-2-naphthamide], the IC50 was not above 100 nM.
